According to publication PMC4496498, “Radiosynthesis, In Vivo Biological Evaluation, and Imaging of Brain Lesions with [^123I]-CLINME, a New SPECT Tracer for the Translocator Protein” (Disease Markers, 2015):

How the values were obtained:
[1] = Lipophilicity, log P estimated from HPLC retention times; type: physicochemical; settings: pH 7.5
Text: The log P values were estimated by comparing HPLC retention times of test compounds with retention times of standards having known log P values as described.

[2] = target: central benzodiazepine receptor (CBR); assay: In vitro binding assay, central benzodiazepine receptor; settings: membranes from kidney and brain cortex; read-out: inhibition constant for the CBR
Procedure: (§1) […] (IC50) of CLINME for the TPSO and for the central benzodiazepine receptor (CBR) was determined as described previously. The IC50 values were converted to the inhibition constant, Ki, using Cheng-Prusoff equation.

TSPO [3] = target: T1, TSPO (Rattus norvegicus, UniProt P16257); settings: competing drug 1 mg/Kg i.v. 5 min prior to tracer; rats, 30 min p.i.; vs controls
Procedure: The saturation effect of [^123I]-CLINME uptake was studied in competition experiments by injecting CLINME (1 mg/Kg), 5 min prior to [^123I]-CLINME (0.7 MBq, 10 pmoles in 0.1 mL of 0.9% saline), via the tail vein, to 8–10-week-old male SD rats.
The drugs were dissolved in dimethyl sulfoxide/saline (1 : 5) and injected intravenously 5 min prior to [^123I]-CLINME. Groups of rats (n = 3-4) were sacrificed by CO2 administration followed by cervical fracture 30 min after administration of [^123I]-CLINME and peripheral organs (liver, spleen, lung, heart, kidney, and adrenals), blood, olfactory bulbs, and the remainder of the brain were removed. The radioactivity concentrations were calculated as described previously. Results were analysed by one-way analysis of variance (ANOVA) followed by Tukey's post hoc test for comparing the tissue radioactivity concentrations in the treated animals (n = 3-4) and in the controls (n = 6). The criterion for significance was P < 0.05.

TSPO [4] = target: T1, TSPO; assay: In vitro binding assay, TSPO, [^3H]-PK11195; parameters: from tissue
Procedure: as §1

TSPO [5] = target: T1, TSPO; assay: In vitro binding assay, TSPO, [^3H]-Ro 5-4864; parameters: from tissue
Procedure: as §1

TSPO [6] = target: T1, TSPO; assay: In vitro autoradiography with [^125I]-CLINME on lesioned brain tissue; type: binding, SD rats; parameters: from tissue; host or cells: male Sprague-Dawley rats: peripheral organs and brain in vivo; AMPA-lesioned striatum; brain sections; settings: 20 μM drug, 16 nM [^125I]-CLINME
TPSO = settings: rats, dose of 5 mg/Kg; cited from earlier work

SMILES	chromatographic logP [1]	Ki [2] [nM]	decrease of [^123I]-CLINME uptake in the heart (TSPO [3]) [%]	decrease of [^123I]-CLINME uptake in the kidney (TSPO [3]) [%]	decrease of [^123I]-CLINME uptake in the lungs (TSPO [3]) [%]	decrease of [^123I]-CLINME uptake in the olfactory bulbs (TSPO [3]) [%]	increase of [^123I]-CLINME uptake in the blood (TSPO [3]) [%]	melting point [°C]	Ki (TSPO [4]) [nM]	selectivity for the TPSO over the CBR (TSPO [4]; in vitro) [fold]	Ki (TSPO [5]) [nM]	effect of coincubation on the differential (lesioned vs contralateral) binding of [^125I]-CLINME (TSPO [6])	chromatographic logP ([1]; HPLC retention times compared with standards of known log P)	block of the uptake of [^123I]-PK11195 in the adrenals (TPSO) [%]
CCN(C)C(=O)Cc1c(-c2ccc(I)cc2)nc2ccc(Cl)cn12 [CLINME, 2-(6-Chloro-2-(4-iodophenyl)imidazo[1,2-a]pyridin-3-yl)-N-ethyl-N-methylacetamide]	3.27	183 ± 20	86	71	76	38	45	65 to 67	1.6 ± 0.2	110	4.5 ± 0.6	eliminated		
CCC(C)N(C)C(=O)c1cc2ccccc2c(-c2ccccc2Cl)n1 (centres unmarked) [PK11195]			87	72	81	36	29					eliminated	3.35	85
